≈ marks a conversion by molar mass, not a printed value. Like-named read-outs stand apart in the source and are kept apart here.
Columns and labels:
[1] = Maximum Tolerated Dose (MTD), single oral dose; conditions: mice, oral gavage, escalating dose 100, 300 and 500 mg/kg
Procedure: An assay for Maximum Tolerated Dose (MTD) was also utilized. […] Three different concentrations are tested, generally at 100, 300 and 500 mg/kg. The latter dose is about twice to five times the dose used for efficacy testing of the compound in mice. After 7 days of observation the mice are sacrificed and the organs are studied for any adverse effects. In case of abnormalities the organs are fixed in formalin and given for extensive pathology analysis.
Maximum tolerated dosing was performed on these selected compounds. An escalating dose of drug (100, 300 and 500 mg/kg) was given to mice by oral gavage.

[2] = biological target: UDP-galactose mutase (Glf) (Mycobacterium tuberculosis, UniProt P9WIQ1); test: microtitre plate based screen of Glf (enzymatic inhibition); format: biochemical; conditions: in words
Chain of UDP-galactose mutase (Glf) (P9WIQ1 whole entry): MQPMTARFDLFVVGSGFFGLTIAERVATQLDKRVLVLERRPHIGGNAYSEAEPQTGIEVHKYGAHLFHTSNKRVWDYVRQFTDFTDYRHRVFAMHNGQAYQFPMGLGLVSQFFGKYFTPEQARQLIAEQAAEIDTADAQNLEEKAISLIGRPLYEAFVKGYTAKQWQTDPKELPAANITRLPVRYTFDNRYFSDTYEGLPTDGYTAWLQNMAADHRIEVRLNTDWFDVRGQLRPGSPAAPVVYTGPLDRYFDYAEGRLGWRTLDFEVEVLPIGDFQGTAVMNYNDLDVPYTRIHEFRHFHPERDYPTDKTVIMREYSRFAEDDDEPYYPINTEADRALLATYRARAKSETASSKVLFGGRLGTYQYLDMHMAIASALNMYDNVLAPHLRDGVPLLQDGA

[3] = tested on: M. tuberculosis; format: in vivo, mice; conditions: in words
[4] = tested on: M. tuberculosis H37Ra; test: MIC against M. tuberculosis H37Ra, micro broth dilution in microtiter plates; conditions: for MIC activity compared with classical TB drugs (FIG. 1): against H37Ra, in words
[5] = Mycobacterium tuberculosis, H37RA
[6] = Mycobacterium tuberculosis, H37RA, 168 h, read-out: TB MIC, Table 1, M. tuberculosis H37Ra, 7 days, MIC90 (>90% inhibition of growth)
[7] = Mycobacterium tuberculosis, H37RA, Table 4, M. tuberculosis H37Ra, MIC90
[8] = Mycobacterium tuberculosis, H37RA, Table 5, M. tuberculosis H37Ra, MIC90
[9] = Mycobacterium tuberculosis, H37RA, Table 6, M. tuberculosis H37Ra, MIC90

Structure (SMILES): O=C(Nc1cccc(F)c1)c1ccc([N+](=O)[O-])o1 [Compound 12, 5-Nitro-furan-2-carboxylic acid(3-fluoro-phenyl)-amide]
- maximum tolerated dosing, observed effect [1]: no effect at the maximum dose

Structure (SMILES): COc1cccc(NC(=O)c2ccc([N+](=O)[O-])o2)c1 [Compound 13, 5-Nitro-furan-2-carboxylic acid(3-methoxy-phenyl)-amide]
- maximum tolerated dosing, observed effect [1]: some pathology at 500 mg/kg
- enzymatic inhibition of Glf [2]: best inhibitors of GIf

Structure (SMILES): O=C(Nc1cccc(Cl)c1)c1ccc([N+](=O)[O-])o1 [Compound 10, 5-Nitro-furan-2-carboxylic acid(3-chloro-phenyl)-amide]
- maximum tolerated dosing, observed effect [1]: no effect at the maximum dose
- enzymatic inhibition of Glf [2]: best inhibitors of GIf

Structure (SMILES): COc1ccc(CNC(=O)c2ccc([N+](=O)[O-])o2)cc1OC [Compound 23, 5-Nitro-furan-2-carboxylic acid 3,4-dimethoxy-benzylamide]
- oral activity against M. tuberculosis in the mouse infection model [3]: significant oral activity
- maximum tolerated dosing, observed effect [1]: no effect at the maximum dose
- MIC [4, 5]: 200 µg/mL (≈ 653 µM)
- MIC [4, 6]: 0.2 µg/mL (≈ 0.653 µM)
- MIC activity compared with classical TB drugs (FIG. 1) [4]: as active as ethambutol and streptomycin

Structure (SMILES): COc1cccc(NC(=O)c2ccc(S(=O)(=O)c3ccccc3)o2)c1 [Compound 39, 5-Benzenesulfonyl-furan-2-carboxylic acid(3-methoxy-phenyl)-amide]
- MIC [4, 6]: 6.25 µg/mL (≈ 17.5 µM)

Structure (SMILES): O=C(NCc1ccc(N2CCN(Cc3ccccc3)CC2)cc1)c1ccc([N+](=O)[O-])o1 [Compound 66, 5-Nitro-furan-2-carboxy1ic acid 4-(4-benzyl-piperazin-1-yl)-benzylamide]
- MIC [4, 5]: 0.006 µg/mL (≈ 0.0143 µM)
- MIC [4, 7]: 0.0062 µg/mL (≈ 0.0147 µM)
- MIC activity compared with classical TB drugs (FIG. 1) [4]: more active than isoniazid

Structure (SMILES): COc1cccc(CN2CCN(C(=O)c3ccc([N+](=O)[O-])o3)CC2)c1 [Compound 86]
- MIC [4, 8]: 1.56 µg/mL (≈ 4.52 µM)

Structure (SMILES): O=C(NCc1ccc(N2CCOCC2)cc1)c1ccc([N+](=O)[O-])o1 [Compound 64, 5-Nitro-furan-2-carboxylic acid 4-morpholin-4-yl-benzylamide]
- MIC [4, 7]: 0.1 µg/mL (≈ 0.302 µM)

Structure (SMILES): COc1ccc(CN2CCN(C(=O)c3ccc([N+](=O)[O-])o3)CC2)cc1 [Compound 85]
- MIC [4, 8]: < 0.1 µg/mL

Structure (SMILES): O=C(c1ccc([N+](=O)[O-])o1)N1CCN(C2CCCCC2)CC1 [Compound 80]
- MIC [4, 8]: 6.25 µg/mL (≈ 20.3 µM)

Structure (SMILES): O=C(NCc1ccc(N2CCC(Cc3ccccc3)CC2)c(F)c1)c1ccc([N+](=O)[O-])o1 [Compound 103, 5-Nitro-furan-2-carboxylic acid 4-(4-benzyl-piperidin-1-yl)-3-fluoro-benzylamide]
- MIC [4, 9]: 0.0125 µg/mL (≈ 0.0286 µM)

Structure (SMILES): COc1cc2c(cc1OC)CN(C(=O)c1ccc([N+](=O)[O-])o1)CC2 [Compound 75]
- MIC [4, 8]: 0.15 µg/mL (≈ 0.451 µM)

Structure (SMILES): COc1ccccc1CNC(=O)c1ccc([N+](=O)[O-])o1 [Compound 52, 5-nitro-furan-2-carboxylic acid 2-methoxy-benzylamide]
- MIC [4, 6]: 1.6 µg/mL (≈ 5.79 µM)

Structure (SMILES): O=C(NC12CC3CC(CC(C3)C1)C2)c1ccc([N+](=O)[O-])o1 [Compound 16, 5-Nitro-furan-2-carboxylic acid adamantan-1-ylamide]
- MIC [4, 6]: 3.1 µg/mL (≈ 10.7 µM)

Structure (SMILES): COc1ccc(CN2CCN(C(=O)c3ccc([N+](=O)[O-])o3)CC2)c(OC)c1 [Compound 89]
- MIC [4, 8]: < 0.1 µg/mL

Structure (SMILES): CC(C)NC(=O)N1CCN(c2ccc(CNC(=O)c3ccc([N+](=O)[O-])o3)cc2)CC1 [Compound 106, 4-(4-{[(5-Nitro-furan-2-carbonyl)-amino]-methyl}-phenyl)-piperazine-1-carboxylic acid isopropylamide]
- MIC [4, 9]: 0.0062 µg/mL (≈ 0.0149 µM)

Structure (SMILES): CCN(CC)c1ccc(CN2CCN(C(=O)c3ccc([N+](=O)[O-])o3)CC2)cc1 [Compound 88]
- MIC [4, 8]: < 0.1 µg/mL

Structure (SMILES): CC(C)NC(=O)CN1CCN(C(=O)c2ccc([N+](=O)[O-])o2)CC1 [Compound 78]
- MIC [4, 8]: 6.25 µg/mL (≈ 19.3 µM)

Structure (SMILES): O=C(Nc1cccc(N2CCN(c3ccccn3)CC2)c1)c1ccc([N+](=O)[O-])o1 [Compound 63, 5-Nitro-furan-2-carboxylic acid[3-(4-pyridin-2-yl-piperazin-1-yl)-phenyl]-amide]
- MIC [4, 7]: 1.6 µg/mL (≈ 4.07 µM)

Structure (SMILES): O=C(NCc1ccc(N2CCN(Cc3ccccc3)CC2)c(F)c1)c1ccc([N+](=O)[O-])o1 [Compound 99, 5-Nitro-furan-2-carboxylic acid 4-(4-benzyl-piperazin-1-yl)-3-fluoro-benzylamide]
- MIC [4, 9]: 0.0125 µg/mL (≈ 0.0285 µM)

Structure (SMILES): COc1cccc(CNC(=O)c2ccc([N+](=O)[O-])o2)c1OC [Compound 53, 5-nitro-furan-2-carboxylic acid 2,3-dimethoxy-benzylamide]
- MIC [4, 6]: 1.2 µg/mL (≈ 3.92 µM)

Structure (SMILES): O=C(NCc1cccc(N2CCC(Cc3ccccc3)CC2)c1)c1ccc([N+](=O)[O-])o1 [Compound 70, 5-Nitro-furan-2-carboxylic acid 3-(4-benzyl-piperidin-1-yl)-benzylamide]
- MIC [4, 7]: 0.0062 µg/mL (≈ 0.0148 µM)

Structure (SMILES): CCOC(=O)c1ccc(C(=O)Nc2cccc(OC)c2)o1 [Compound 40, 5-(3-Methoxy-phenylcarbamoyl)-furan-2-carboxylic acid ethyl ester]
- MIC [4, 6]: 400 µg/mL (≈ 1380 µM)

Structure (SMILES): COc1ccccc1N1CCN(C(=O)c2ccc([N+](=O)[O-])o2)CC1 [Compound 82]
- MIC [4, 8]: 1.56 µg/mL (≈ 4.71 µM)

Structure (SMILES): CN1CCN(c2ccc(NC(=O)c3ccc([N+](=O)[O-])o3)cc2)CC1 [Compound 55, 5-Nitro-furan-2-carboxylic acid[4-(4-methyl-piperazin-1-yl)-phenyl]-amide]
- MIC [4, 7]: 6.25 µg/mL (≈ 18.9 µM)

Structure (SMILES): CN(C(=O)c1ccc([N+](=O)[O-])o1)c1ccccc1 [Compound 41]
- MIC [4]: 3.1 µg/mL (≈ 12.6 µM)

Structure (SMILES): O=C(NC1CCCCC1)c1ccc([N+](=O)[O-])o1 [Compound 15, 5-Nitro-furan-2-carboxylic acid cyclohexylamide]
- MIC [4, 6]: 3.1 µg/mL (≈ 13 µM)

Structure (SMILES): NNC(=O)c1ccncc1 [Isoniazid, isoniazid, reference compound]
- MIC90 [4, 5]: 0.05 µg/mL (≈ 0.365 µM)

Structure (SMILES): CC[C@@H](CO)NCCN[C@@H](CC)CO [ethambutol, reference compound]
- MIC90 [4, 5]: 0.78 µg/mL (≈ 3.82 µM)

Structure (SMILES): O=C(c1ccc([N+](=O)[O-])o1)N1CCN(Cc2cccc(OCc3ccccc3)c2)CC1 [Compound 87]
- MIC [4, 8]: 1.56 µg/mL (≈ 3.7 µM)

Structure (SMILES): O=C(NCc1cccc(N2CCN(Cc3ccccc3)CC2)c1)c1ccc([N+](=O)[O-])o1 [Compound 69, 5-Nitro-furan-2-carboxylic acid 3-(4-benzyl-piperazin-1-yl)-benzylamide]
- MIC [4, 7]: < 0.1 µg/mL

Structure (SMILES): NC1CCN(c2ccc(CNC(=O)c3ccc([N+](=O)[O-])o3)cc2)C1 (stereo not shown) [Compound 95, 5-Nitro-furan-2-carboxylic acid 4-(3-amino-pyrrolidin-1-yl)-benzylamide]
- MIC [4, 9]: 0.8 µg/mL (≈ 2.42 µM)

Structure (SMILES): COc1cccc(NC(=O)c2ccc(S(=O)(=O)O)o2)c1 [Compound 34, 5-(3-Methoxy-phenylcarbamoyl)-furan-2-sulfonic acid]
- MIC [4, 6]: 200 µg/mL (≈ 673 µM)

Structure (SMILES): O=C(NCc1ccc(N2CCN(CC3CC3)CC2)cc1)c1ccc([N+](=O)[O-])o1 [Compound 98, 5-Nitro-furan-2-carboxylic acid 4-(4-cyclopropylmethyl-piperazin-1-yl)-benzylamide]
- MIC [4, 9]: 0.05 µg/mL (≈ 0.13 µM)

Structure (SMILES): O=C(NCc1ccc(N2CCNCC2)cc1)c1ccc([N+](=O)[O-])o1 [Compound 97, 5-Nitro-furan-2-carboxylic acid 4-piperazin-1-yl-benzylamide]
- MIC [4, 9]: 0.8 µg/mL (≈ 2.42 µM)
